# Source: patent publication US11882834B2, “Microbiocidal thiazole derivatives” (SYNGENTA PARTICIPATIONS AG, priority 2017, dated 2024)
# What was measured:
# [1] = system: Phaeosphaeria nodorum (Septoria nodorum); assay: Phaeosphaeria nodorum (Septoria nodorum) / wheat / leaf disc preventative (glume blotch); assay type: in vivo; conditions: 200 ppm in the formulation, wheat leaf segments cv. Kanzler, compared to untreated, 5-7 days after application
# Method: Phaeosphaeria nodorum (Septoria nodorum)/Wheat/Leaf Disc Preventative (Glume Blotch) Wheat leaf segments cv. Kanzler are placed on agar in a multiwell plate (24-well format) and sprayed with the formulated test compound diluted in water. The leaf disks are inoculated with a spore suspension of the fungus 2 days after application. The inoculated test leaf disks are incubated at 20° C. and 75% rh under a light regime of 12 h light/12 h darkness in a climate cabinet and the activity of a compound is assessed as percent disease control compared to untreated when an appropriate level of disease damage appears in untreated check leaf disks (5-7 days after application).
# [2] = system: Mycosphaerella arachidis (Cercospora arachidicola); assay: Mycosphaerella arachidis (Cercospora arachidicola) / liquid culture (early leaf spot); assay type: cell-based; conditions: 200 ppm in the formulation; liquid culture (PDB), growth determined photometrically 4-5 days after application; compared to untreated
# Method: Mycosphaerella arachidis (Cercospora arachidicola)/Liquid Culture (Early Leaf Spot) Conidia of the fungus from cryogenic storage are directly mixed into nutrient broth (PDB potato dextrose broth). After placing a (DMSO) solution of test compound into a microtiter plate (96-well format), the nutrient broth containing the fungal spores is added. The test plates are incubated at 24° C. and the inhibition of growth is determined photometrically 4-5 days after application.
structure (smiles),measurement,setting,value
"Cc1sc(Nc2cc(F)nc(F)c2)nc1C(=O)NC1CCC1(C)C (centres unmarked) [Compound I.r.19, 2-[(2,6-difluoro-4-pyridyl)amino]-N-(2,2-dimethylcyclobutyl)-5-methyl-thiazole-4-carboxamide]",disease control,[1],at least 80%
same,disease control,[2],at least 80%
